Laboratory results published in patent publication US9409976B2, “CDIM binding proteins and uses thereof” (IGM BIOSCIENCES, INC., priority 2012, dated 2016).
Read-outs that look alike come from different tables or passages of the source.

Experiments:
[1] = test system: B cells; assay: Combination of agents with CDIM binding proteins, cytotoxicity to B cells; format: cell-based
[2] = test system: CDIM antigen on human pro-B cell line NALM-6; assay: Binding of CDIM binding proteins to CDIM antigen on NALM-6 cells, flow cytometry (MFI); conditions: 1 hour on ice, non-linear regression curve fit
Description: This example describes how the binding properties of the disclosed antibodies were investigated. The antibodies were prepared by affinity chromatography. In FIG. 6A, the human pro-B cell line, NALM-6, which expresses the CDIM antigen on the cell surface was stained with the series of recombinant IgM antibodies. The antibodies were used to determine the dose response beginning at 20 μg/tube diluted stepwise by 2, to a final concentration at 0.039 μg. Cells were stained in a 100 μl volume in 3% FBS/PBS on ice for 1 hour followed by a subsequent staining with DyLight-488 conjugated anti-human IgM (Jackson Immuno), 1 μg/ml for 20 minutes at 4 C.
Analysis of CDIM binding was performed on FACScan flow cytometer using CellQuest analysis software. Results are shown as raw data points with Mean Fluorescence Intensity (MFI) on Y-axis and concentration of primary antibody (μg/100 μl) on X-axis.
The data were re-analyzed using GraphPad analysis program to fit the results using non-linear regression curve fit. EC50 (μg/100 μl) for each antibody was (a) 10.6 for IGM1, (b) 2.2 for IGM23, (c) 2.2 for IGM34, and (d) 1.7 for IGM36.

[3] = test system: human pro-B cell line NALM-6; assay: Cytotoxicity resulting from cellular binding, propidium iodine uptake; format: cell-based; conditions: NALM-6 cells, viability after 1 hour of staining
Description: This example describes how the cytotoxicity of the CDIM binding proteins was investigated. The human pro-B cell line NALM-6 was stained identically as described in FIG. 6A above. In FIG. 6B, cell killing was evaluated by measuring cell viability after 1 hour of staining. […] Results are shown as raw data with % viability on Y-axis and concentration (μg/100 μl) on X-axis.
Identical results were graphed using GraphPad analysis program and data fit using non-linear regression curve fitting. The EC50 was calculated for each antibody using the same approach described above. EC50 (μg/100 μl) for each antibody was (a) 3.0 for IGM1, (b) 0.6 for IGM 23, (c) 0.6 for IGM34, and (d) 0.3 for IGM36.

[4] = combination with CDIM binding proteins

Nc1ccn([C@@H]2O[C@H](CO)[C@@H](O)[C@@H]2O)c(=O)n1 [Ara-C (Cytarabine), Cytarabine]
Effect of combination with CDIM binding proteins [1, 4]: Additive Effect

COc1cc2c(c(OC)c1OC)-c1ccc(OC)c(=O)cc1[C@@H](NC(C)=O)CC2 [Colchisine]
Effect of combination with CDIM binding proteins [1, 4]: Synergistic Effect

COc1cccc2c1C(=O)c1c(O)c3c(c(O)c1C2=O)C[C@@](O)(C(C)=O)C[C@@H]3O[C@H]1C[C@H](N)[C@H](O)[C@H](C)O1 [Daunorubicin]
Effect of combination with CDIM binding proteins [1]: Additive Effect

COc1cc([C@@H]2c3cc4c(cc3[C@@H](O[C@@H]3O[C@@H]5CO[C@@H](C)O[C@H]5[C@H](O)[C@H]3O)[C@H]3COC(=O)[C@H]23)OCO4)cc(OC)c1O [Etoposide (VP-16), Etoposide]
Effect of combination with CDIM binding proteins [1, 4]: Additive Effect

COC(=O)Nc1nc2ccc(C(=O)c3cccs3)cc2[nH]1 [Nocodazole]
Effect of combination with CDIM binding proteins [1, 4]: Synergistic Effect

CC(=O)O[C@H]1C(=O)[C@@]2(C)[C@H]([C@H](OC(=O)c3ccccc3)[C@]3(O)C[C@H](OC(=O)[C@H](O)[C@@H](NC(=O)c4ccccc4)c4ccccc4)C(C)=C1C3(C)C)[C@]1(OC(C)=O)CO[C@@H]1C[C@@H]2O [Paclitaxel (Taxol), Paclitaxel]
Effect of combination with CDIM binding proteins [1, 4]: Possible/Undermined

CC[C@]1(O)C[C@H]2CN(CCc3c([nH]c4ccccc34)[C@@](C(=O)OC)(c3cc4c(cc3OC)N(C=O)[C@H]3[C@@](O)(C(=O)OC)[C@H](OC(C)=O)[C@]5(CC)C=CCN6CC[C@]43[C@@H]65)C2)C1 [Vincristine]
Effect of combination with CDIM binding proteins [1, 4]: Synergistic Effect
Effect of combination with CDIM binding proteins ([1]; combination with CDIM binding proteins, listed as vincristine): enhanced degree of cytotoxicity to B cells when compared to the additive effect of each single agent alone

B1: IGM1: IgM; heavy chain H1 (SEQ ID NO:28) with lambda light chain (SEQ ID NO:50) (antibody)
heavy: QVQLQQWGAGLLKPSETLSLTCAVYGGSFSGYYWSWIRQPPGKGLEWIGEINHSGSTNYNPSLKSRVTISVDTSKNQFSLKLSSVTAADTAVYYCARGRMAWGASVNFDYWGQGTLVTVSSGSASAPTLFPLVSCENSPSDTSSVAVGCLAQDFLPDSITFSWKYKNNSDISSTRGFPSVLRGGKYAATSQVLLPSKDVMQGTDEHVVCKVQHPNGNKEKNVPLPVIAELPPKVSVFVPPRDGFFGNPRKSKLICQATGFSPRQIQVSWLREGKQVGSGVTTDQVQAEAKESGPTTYKVTSTLTIKESDWLSQSMFTCRVDHRGLTFQQNASSMCVPDQDTAIRVFAIPPSFASIFLTKSTKLTCLVTDLTTYDSVTISWTRQNGEAVKTHTNISESHPNATFSAVGEASICEDDWNSGERFTCTVTHTDLPSPLKQTISRPKGVALHRPDVYLLPPAREQLNLRESATITCLVTGFSPADVFVQWMQRGQPLSPEKYVTSAPMPEPQAPGRYFAHSILTVSEEEWNTGETYTCVVAHEALPNRVTERTVDKSTGKPTLYNVSLVMSDTAGTCY
light: DIQMTQSPSTLSASVGDRVTITCTGTSSDVGGYNYVSWYQQHPGKAPKLMIYGVSNRFSGSKSGNTASLTISGLAAEDEADYYCSSYTSSSTLVVFGGGTKLTVLGQPKAAPSVTLFPPSSEELQANKATLVCLISDFYPGAVTVAWKADSSPVKAGVETTTPSKQSNNKYAASSYLSLTPEQWKSHRSYSCQVTHEGSTVEKTVAPTECS
EC50 of CDIM binding (MFI) [2]: 10.6 μg/100 μl
EC50 of cytotoxicity (% viability) [3]: 3.0 μg/100 μl
